# Columns and labels:
# Assay in all cases: cancer cell growth inhibition (SRB)
# Assay type in all cases: cell-based, human
# [1] = test system: SR; settings: Leukemia
# [2] = test system: RPMI-8226; settings: Leukemia
# [3] = test system: CCRF-CEM; settings: Leukemia
# [4] = test system: NCI-H23; settings: Non-Small Cell Lung Cancer
# [5] = test system: OVCAR-4; settings: Ovarian Cancer
# [6] = test system: MCF7; settings: Breast Cancer
# [7] = test system: OVCAR-5; settings: Ovarian Cancer
# [8] = test system: LOXIMVI; settings: Melanoma
# [9] = test system: HOP-62; settings: Non-Small Cell Lung Cancer
# [10] = test system: NCI-H226; settings: Non-Small Cell Lung Cancer
# [11] = test system: SF-268; settings: CNS Cancer
# [12] = test system: K-562; settings: Leukemia
# [13] = test system: NCI-H322M; settings: Non-Small Cell Lung Cancer
# [14] = test system: A498; settings: Renal Cancer
# [15] = test system: SK-MEL-5; settings: Melanoma
# [16] = test system: IGROV1; settings: Ovarian Cancer
# [17] = test system: NCI-H460; settings: Non-Small Cell Lung Cancer
# [18] = test system: HCT-116; settings: Colon Cancer
# [19] = test system: MDA-MB-468; settings: Breast Cancer
# Source text: The compounds described herein can be tested for activity against various forms of cancer by testing for inhibition of cancer cell growth using in vitro assays. For example, compounds V-23 and V-38 (See Table 5 in Example 26) where tested for efficacy in inhibiting the growth of human cancer cells using the general procedure described below. The test evaluated compound activity for inhibiting cancer cell growth in over 50 cancer cell lines, which included non-small cell lung cancer, colon cancer, breast cancer, ovarian cancer, leukemia, renal cancer, melanoma, prostate cancer, and cancer of the central nervous system tissue. […]
# Following addition of the test compound, the plates are incubated for an additional 48 h at 37° C., 5% CO2, 95% air, and 100% relative humidity. […] Bound stain is then solubilized with 10 mM trizma base, and the absorbance is read on an automated plate reader at a wavelength of 515 nm. […] Using seven absorbance measurements [time zero, (Tz), control growth, (C), and test growth in the presence of drug at the five concentration levels (Ti)], the percentage growth is calculated at each of the drug concentrations levels.
# The percentage of growth inhibition caused by the test compounds on the cancer cell lines can be calculated using the following formulae: [(Ti−Tz)/(C−Tz)]×100 for concentrations for which Ti≧Tz [(Ti−Tz)/Tz]×100 for concentrations for which Ti<Tz
# [20] = test system: EKVX; settings: Non-Small Cell Lung Cancer
# [21] = test system: SK-MEL-2; settings: Melanoma
# [22] = test system: M14; settings: Melanoma
# [23] = test system: BT-549; settings: Breast Cancer
# [24] = test system: SW-620; settings: Colon Cancer
# [25] = test system: OVCAR-8; settings: Ovarian Cancer
# [26] = test system: SK-OV-3; settings: Ovarian Cancer
# [27] = test system: HT29; settings: Colon Cancer
# [28] = test system: HS 578T; settings: Breast Cancer
# [29] = test system: MOLT-4; settings: Leukemia
# [30] = test system: SF-295; settings: CNS Cancer
# [31] = test system: MALME-3M; settings: Melanoma
# [32] = test system: OVCAR-3; settings: Ovarian Cancer
compound,measurement,setting,value
CN1C(=O)C(Cc2ccc3ccccc3c2)N=C(c2cn[nH]c2)c2cc(Cl)ccc21 (centres unmarked) [Compound V-38],growth inhibition of the cancer cells,[1],− (an apparent increase in cancer cell growth upon administration of the test compound)
same,growth inhibition of the cancer cells,[2],+ (less than 40% growth inhibition of the cancer cells)
same,growth inhibition of the cancer cells,[3],+ (less than 40% growth inhibition of the cancer cells)
same,growth inhibition of the cancer cells,[4],+++ (at least 75% growth inhibition of the cancer cells)
same,growth inhibition of the cancer cells,[5],++ (40%-75% growth inhibition of the cancer cells)
same,growth inhibition of the cancer cells,[6],++ (40%-75% growth inhibition of the cancer cells)
same,growth inhibition of the cancer cells,[7],+ (less than 40% growth inhibition of the cancer cells)
same,growth inhibition of the cancer cells,[8],+++ (at least 75% growth inhibition of the cancer cells)
same,growth inhibition of the cancer cells,[9],+++ (at least 75% growth inhibition of the cancer cells)
same,growth inhibition of the cancer cells,[10],++ (40%-75% growth inhibition of the cancer cells)
same,growth inhibition of the cancer cells,[11],+++ (at least 75% growth inhibition of the cancer cells)
same,growth inhibition of the cancer cells,[12],+ (less than 40% growth inhibition of the cancer cells)
same,growth inhibition of the cancer cells,[13],+ (less than 40% growth inhibition of the cancer cells)
same,growth inhibition of the cancer cells,[14],+++ (at least 75% growth inhibition of the cancer cells)
same,growth inhibition of the cancer cells,[15],+++ (at least 75% growth inhibition of the cancer cells)
same,growth inhibition of the cancer cells,[16],+++ (at least 75% growth inhibition of the cancer cells)
same,growth inhibition of the cancer cells,[17],++ (40%-75% growth inhibition of the cancer cells)
same,growth inhibition of the cancer cells,[18],+++ (at least 75% growth inhibition of the cancer cells)
same,growth inhibition of the cancer cells,[19],++ (40%-75% growth inhibition of the cancer cells)
same,growth inhibition of the cancer cells,[20],++ (40%-75% growth inhibition of the cancer cells)
same,growth inhibition of the cancer cells,[21],++ (40%-75% growth inhibition of the cancer cells)
same,growth inhibition of the cancer cells,[22],+++ (at least 75% growth inhibition of the cancer cells)
same,growth inhibition of the cancer cells,[23],+++ (at least 75% growth inhibition of the cancer cells)
same,growth inhibition of the cancer cells,[24],+++ (at least 75% growth inhibition of the cancer cells)
same,growth inhibition of the cancer cells,[25],+ (less than 40% growth inhibition of the cancer cells)
same,growth inhibition of the cancer cells,[26],+ (less than 40% growth inhibition of the cancer cells)
same,growth inhibition of the cancer cells,[27],+ (less than 40% growth inhibition of the cancer cells)
same,growth inhibition of the cancer cells,[28],+ (less than 40% growth inhibition of the cancer cells)
same,growth inhibition of the cancer cells,[29],+ (less than 40% growth inhibition of the cancer cells)
same,growth inhibition of the cancer cells,[30],+ (less than 40% growth inhibition of the cancer cells)
same,growth inhibition of the cancer cells,[31],+++ (at least 75% growth inhibition of the cancer cells)
same,growth inhibition of the cancer cells,[32],+++ (at least 75% growth inhibition of the cancer cells)
